Experimental data from patent publication US5726162A (priority 1996, dated 1998).

Tests used:
fungal inoculum = experiment: organism not typed; format: cell-based
[1] = tested on: Magnaporthe grisea (Pyricularia oryzae); experiment: whole plant or invertebrate; format: in vivo, Magnaporthe grisea (Pyricularia oryzae) on M201 rice plants; details: for pest or weed control at 200 ppm: Pyricularia oryzae, 144 h, read-out: % Control RB

## CC(C)C#CC=CCN1N=C(c2ccc(Cl)cc2)CCC1=O [Compound 70]
Fungal inoculum; read-out: % growth inhibition
  inhibition at 5 ppm: 100%
[1]
  pest or weed control at 200 ppm: 0%

## O=C1CCC(c2ccc(Cl)cc2)=NN1CC#CCBr [Compound 71]
Fungal inoculum; read-out: % growth inhibition
  inhibition at 50 ppm: 92.6%
[1]
  pest or weed control at 200 ppm: 0%

## O=C1CCC(c2ccc(Cl)cc2)=NN1CC#CCCl [Compound 72, 6-(4-chlorophenyl)-2-(4'-chloro-2'-butynyl)-4,5-dihydropyridazinone]
Fungal inoculum; read-out: % growth inhibition
  inhibition at 0.5 ppm: 96.2%
[1]
  pest or weed control at 200 ppm: 90%

## CCC#CCN1N=C(c2ccc(Cl)cc2F)CCC1=O [Compound 73]
Fungal inoculum; read-out: % growth inhibition
  inhibition at 50 ppm: 94.4%
[1]
  pest or weed control at 200 ppm: 95%

## O=C1CCC(c2ccc(Cl)cc2)=NN1CC#CC1CO1 (centres unmarked) [Compound 77]
Fungal inoculum; read-out: % growth inhibition
  inhibition at 10 ppm: 89.2%
[1]
  pest or weed control at 200 ppm: 0%

## O=C1CCC(c2ccc(Cl)cc2)=NN1CC#CC(F)=C(F)F [Compound 78]
Fungal inoculum; read-out: % growth inhibition
  inhibition at 0.5 ppm: 100%
[1]
  pest or weed control at 200 ppm: 0%

## CCC#CCN1N=C(c2ccc(OC(F)(F)F)c(F)c2)CCC1=O [Compound 92]
Fungal inoculum; read-out: % growth inhibition
  inhibition at 1 ppm: 100%
[1]
  pest or weed control at 200 ppm: 90%

## CCC#CCn1nc(-c2ccc(CC)cc2)ccc1=O [Compound 110]
Fungal inoculum; read-out: % growth inhibition
  inhibition at 10 ppm: 100%
[1]
  pest or weed control at 200 ppm: 0%

## CCC#CCn1nc(-c2ccc(C(C)(C)C)cc2)ccc1=O [Compound 111]
Fungal inoculum; read-out: % growth inhibition
  inhibition at 25 ppm: 100%
[1]
  pest or weed control at 200 ppm: 0%

## CCC#CCn1nc(-c2ccc(Cl)c(Cl)c2)ccc1=O [Compound 112]
Fungal inoculum; read-out: % growth inhibition
  inhibition at 10 ppm: 100%
[1]
  pest or weed control at 200 ppm: 90%

## CCC#CCn1nc(-c2ccc(Cl)c(C)c2)ccc1=O [Compound 113]
Fungal inoculum; read-out: % growth inhibition
  inhibition at 10 ppm: 64.3%
[1]
  pest or weed control at 200 ppm: 95%

## CC#CCn1nc(-c2ccc(Cl)c(C)c2)ccc1=O [Compound 114]
Fungal inoculum; read-out: % growth inhibition
  inhibition at 5 ppm: 100%
[1]
  pest or weed control at 200 ppm: 50%

## CCC#CCn1nc(-c2ccc(Cl)cc2C)ccc1=O [Compound 115]
Fungal inoculum; read-out: % growth inhibition
  inhibition at 50 ppm: 93.7%
[1]
  pest or weed control at 200 ppm: 50%

## CC#CCn1nc(-c2ccc(Cl)cc2C)ccc1=O [Compound 116]
Fungal inoculum; read-out: % growth inhibition
  inhibition at 50 ppm: 82.5%
[1]
  pest or weed control at 200 ppm: 0%

## CCC#CCn1nc(-c2ccc(OCC)cc2)ccc1=O [Compound 117]
Fungal inoculum; read-out: % growth inhibition
  inhibition at 200 ppm: 34.7%
[1]
  pest or weed control at 200 ppm: 0%

## CCC[CH2][Sn]([C]#CCN1N=C(c2ccc(Cl)cc2)CCC1=O)([CH2]CCC)[CH2]CCC [Compound 124, 6-(4-chlorophenyl)-2-(3'-tri-n-butyltin-2'-propynyl)-4,5-dihydropyridazinon]
Fungal inoculum
  % growth inhibition: 100.0%
[1]; 200 ppm, protectant
  % Control RB: 0%

## CC#CCN1N=C(c2cccc3ccccc23)CCC1=O [Compound 134, 6-(1-naphthyl)-2-(2'-pentynyl)-4,5-dihydropyridazinone]
Fungal inoculum; read-out: % growth inhibition
  inhibition at 50 ppm: 66.5%
[1]
  pest or weed control at 200 ppm: 0%

## CCC#CCN1N=C(c2ccc3ccccc3c2)CCC1=O [Compound 136]
Fungal inoculum; read-out: % growth inhibition
  inhibition at 1 ppm: 84.6%
[1]
  pest or weed control at 200 ppm: 99%

## CC#CCN1N=C(c2c(OC)ccc3ccc(OC)cc23)CCC1=O [Compound 138]
Fungal inoculum; read-out: % growth inhibition
  inhibition at 100 ppm: 64.6%
[1]
  pest or weed control at 200 ppm: 0%

## CC#CCN1N=C(c2ccccc2)CCCC1=O [Compound 139, 2-(2-butynyl)-7-phenyl-1,2-diazapin-3-one]
Fungal inoculum; read-out: % growth inhibition
  inhibition at 100 ppm: 65%
[1]
  pest or weed control at 200 ppm: 0%

## CC#CCN1N=C(c2cccs2)CCC1=O [Compound 140]
Fungal inoculum; read-out: % growth inhibition
  inhibition at 100 ppm: 37.8%
[1]
  pest or weed control at 200 ppm: 75%

## CC#CCN1N=C(c2ccc3ccc4cccc5ccc2c3c45)CCC1=O [Compound 141]
Fungal inoculum; read-out: % growth inhibition
  inhibition at 100 ppm: 23.9%
[1]
  pest or weed control at 200 ppm: 0%

## CCC#CCN1N=C2c3ccccc3CC2CC1=O (centres unmarked) [Compound 142]
Fungal inoculum; read-out: % growth inhibition
  inhibition at 50 ppm: 100%
[1]
  pest or weed control at 200 ppm: 50%

## CCC#CCn1cc(-c2ccc(Cl)cc2)cc(C#N)c1=O [Compound 146, 5-(4-chlorophenyl)-3-cyano-1-(2-pentyn-1-yl)-2-pyridinone]
Fungal inoculum; read-out: % growth inhibition
  inhibition at 10 ppm: 5%
[1]
  pest or weed control at 200 ppm: 0%

## CCC#CCn1nc(-c2sc3ccccc3c2Br)ccc1=O [Compound 148]
Fungal inoculum; read-out: % growth inhibition
  inhibition at 10 ppm: 0%
[1]
  pest or weed control at 200 ppm: 0%
